# From ChEMBL document CHEMBL4359905, “Discovery, structural insight, and bioactivities of BY27 as a selective inhibitor of the second bromodomains of BET proteins” (Eur J Med Chem, 2019)
# Experiments:
# [1] = Toxicity in BALB/c nu/nu mouse xenografted with human MV4-11 cells assessed as decrease in body weight at 60 mg/kg, po via gavage once daily for 6 days and measured every 2 to 3 days relative to control; assay type: organism-based; design: scale not given: the % may be the effect or the level left; conditions: in vivo
# [2] = target: T1, Bromodomain-containing protein 3 (Homo sapiens, UniProt Q15059); assay: Binding affinity to human partial length BRD3 BD2 (G306 to P416 residues) expressed in bacterial expression system by bromoscan assay
# Target sequence in this assay (Q15059 whole entry, the tested form may be a part): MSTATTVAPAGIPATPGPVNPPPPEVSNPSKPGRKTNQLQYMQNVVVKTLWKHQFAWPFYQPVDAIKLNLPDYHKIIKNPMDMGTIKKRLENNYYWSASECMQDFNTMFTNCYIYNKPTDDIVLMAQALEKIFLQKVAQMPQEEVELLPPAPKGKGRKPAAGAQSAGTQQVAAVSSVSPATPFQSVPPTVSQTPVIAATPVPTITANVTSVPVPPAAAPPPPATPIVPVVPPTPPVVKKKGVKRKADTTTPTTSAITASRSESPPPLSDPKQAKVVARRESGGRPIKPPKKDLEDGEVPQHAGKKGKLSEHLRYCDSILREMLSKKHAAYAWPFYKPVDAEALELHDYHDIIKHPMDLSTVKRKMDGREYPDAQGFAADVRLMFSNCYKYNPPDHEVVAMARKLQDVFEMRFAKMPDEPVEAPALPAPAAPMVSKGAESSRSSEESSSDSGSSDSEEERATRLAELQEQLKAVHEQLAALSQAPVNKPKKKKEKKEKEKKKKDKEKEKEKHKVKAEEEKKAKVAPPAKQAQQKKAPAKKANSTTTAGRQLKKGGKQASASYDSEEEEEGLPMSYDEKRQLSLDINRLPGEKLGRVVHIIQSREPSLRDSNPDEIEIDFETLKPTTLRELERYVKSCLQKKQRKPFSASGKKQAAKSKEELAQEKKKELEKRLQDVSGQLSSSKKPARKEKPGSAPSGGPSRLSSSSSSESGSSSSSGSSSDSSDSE
# HepG2 [3] = assay: Downregulation of […] in human HepG2 cells after 4 hrs by qRT-PCR analysis; assay type: functional, cell-based
# [4] = Half-life in ICR mouse at 15 mg/kg, po measured upto 24 hrs by LC-MS/MS analysis; assay type: ADME, organism-based; conditions: in vivo
# HepG2 [5] = assay: Downregulation of ARID5B in human HepG2 cells after 4 hrs by qRT-PCR analysis; assay type: functional, cell-based
# [6] = target: T2, Bromodomain-containing protein 4 (Homo sapiens, UniProt O60885); assay: Selectivity ratio of Kd for human partial length BRD4 BD1 isoform long (N44 to E168 residues) expressed in bacterial expression system to Kd for human partial length BRD4 BD2 isoform long (K333 to E460 residues) expressed in bacterial expression system
# [7] = target: T3, Bromodomain testis-specific protein (Homo sapiens, UniProt Q58F21); assay: Binding affinity to human partial length BRDT bromodomain 1 isoform b (N21 to E137 residues) expressed in bacterial expression system by bromoscan assay
# MM1.S = assay: Antiproliferative activity against human MM1S cells assessed as cell growth inhibition after 4 days by CCK8 assay; assay type: functional, cell-based; conditions: 96 h
# [8] = target: T2, Bromodomain-containing protein 4; assay: Binding affinity to human recombinant BRD4 BD2 (333 to 460 residues) by fluorescence polarization assay
# [9] = target: T3, Bromodomain testis-specific protein; assay: Selectivity ratio Kd for human partial length BRDT bromodomain 1 isoform b (N21 to E137 residues) expressed in bacterial expression system to Kd for human partial length BRDT bromodomain 2 isoform b (K250 to E382 residues) expressed in bacterial expression system
# [10] = target: T2, Bromodomain-containing protein 4; assay: Binding affinity to human partial length BRD4 BD2 isoform long (K333 to E460 residues) expressed in bacterial expression system by bromoscan assay
# MV4-11 [11] = assay: Antitumour activity against human MV4-11 cells xenografted in BALB/c nu/nu mouse assessed as tumour growth inhibition at 100 mg/kg, po via gavage administered once daily for 21 days and measured every 2 to 3 days by vernier caliper method relative to control; assay type: functional; conditions: MV4-11, po, read-out: GI
# [12] = Cmax in ICR mouse at 15 mg/kg, po measured upto 24 hrs by LC-MS/MS analysis; assay type: ADME, organism-based; design: dose 15 mg/kg, route oral; conditions: in vivo
# [13] = target: T1, Bromodomain-containing protein 3; assay: Binding affinity to human partial length BRD3 BD1 (P24 to E144 residues) expressed in bacterial expression system by bromoscan assay
# Target sequence in this assay (Q15059 whole entry, the tested form may be a part): as above
# [14] = AUC (0 to t) in ICR mouse at 15 mg/kg, po measured upto 24 hrs by LC-MS/MS analysis; assay type: ADME, organism-based; design: time < 24 hr, dose 15 mg/kg, route oral; conditions: in vivo
# [15] = target: T4, Bromodomain-containing protein 2 (Homo sapiens, UniProt P25440); assay: Selectivity ratio of Kd for human partial length BRD2 BD1 isoform 1 (K71 to N194 residues) expressed in bacterial expression system to Kd for human partial length BRD2 BD2 isoform 1 (E348 to D455 residues) expressed in bacterial expression system
# Target sequence in this assay (P25440 whole entry, looked up, the tested form may be a part, canonical isoform): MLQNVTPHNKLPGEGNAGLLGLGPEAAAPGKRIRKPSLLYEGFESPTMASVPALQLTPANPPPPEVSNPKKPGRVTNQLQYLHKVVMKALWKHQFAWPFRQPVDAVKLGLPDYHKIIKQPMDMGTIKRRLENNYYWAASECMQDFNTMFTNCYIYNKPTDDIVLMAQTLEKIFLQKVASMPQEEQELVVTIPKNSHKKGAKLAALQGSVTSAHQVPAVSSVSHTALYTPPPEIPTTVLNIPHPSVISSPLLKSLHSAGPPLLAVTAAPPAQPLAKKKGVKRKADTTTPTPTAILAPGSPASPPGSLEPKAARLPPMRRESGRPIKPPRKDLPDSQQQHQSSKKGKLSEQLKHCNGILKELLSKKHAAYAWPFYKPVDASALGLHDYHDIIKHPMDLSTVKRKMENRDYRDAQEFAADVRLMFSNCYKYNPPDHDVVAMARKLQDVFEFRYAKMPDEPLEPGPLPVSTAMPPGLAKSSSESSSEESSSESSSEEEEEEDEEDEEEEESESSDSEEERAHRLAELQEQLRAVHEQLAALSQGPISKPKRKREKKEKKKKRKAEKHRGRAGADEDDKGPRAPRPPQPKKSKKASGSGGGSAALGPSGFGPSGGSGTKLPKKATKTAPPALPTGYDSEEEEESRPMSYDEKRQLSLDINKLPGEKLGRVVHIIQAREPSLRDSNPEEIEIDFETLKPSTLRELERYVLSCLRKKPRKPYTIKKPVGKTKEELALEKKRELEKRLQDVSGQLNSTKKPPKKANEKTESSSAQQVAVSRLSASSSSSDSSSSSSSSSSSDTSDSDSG
# MV4-11 [16] = assay: Antitumour activity against human MV4-11 cells xenografted in BALB/c nu/nu mouse assessed as upregulation of p21 expression level in tumor tissue at 150 mg/kg, po administered via gavage as a single dose measured after 6 hrs by western blot analysis; assay type: functional
# [17] = Toxicity in BALB/c nu/nu mouse xenografted with human MV4-11 cells assessed as decrease in body weight at 150 mg/kg, po via gavage once daily for 21 days and measured every 2 to 3 days relative to control; assay type: organism-based; design: scale not given: the % may be the effect or the level left; conditions: in vivo
# [18] = target: T3, Bromodomain testis-specific protein; assay: Binding affinity to human partial length BRDT bromodomain 2 isoform b (K250 to E382 residues) expressed in bacterial expression system by bromoscan assay
# [19] = target: T1, Bromodomain-containing protein 3; assay: Selectivity ratio of Kd for human partial length BRD3 BD1 (P24 to E144 residues) expressed in bacterial expression system to Kd for human partial length BRD3 BD2 (G306 to P416 residues) expressed in bacterial expression system
# Target sequence in this assay (Q15059 2-726 limits assumed): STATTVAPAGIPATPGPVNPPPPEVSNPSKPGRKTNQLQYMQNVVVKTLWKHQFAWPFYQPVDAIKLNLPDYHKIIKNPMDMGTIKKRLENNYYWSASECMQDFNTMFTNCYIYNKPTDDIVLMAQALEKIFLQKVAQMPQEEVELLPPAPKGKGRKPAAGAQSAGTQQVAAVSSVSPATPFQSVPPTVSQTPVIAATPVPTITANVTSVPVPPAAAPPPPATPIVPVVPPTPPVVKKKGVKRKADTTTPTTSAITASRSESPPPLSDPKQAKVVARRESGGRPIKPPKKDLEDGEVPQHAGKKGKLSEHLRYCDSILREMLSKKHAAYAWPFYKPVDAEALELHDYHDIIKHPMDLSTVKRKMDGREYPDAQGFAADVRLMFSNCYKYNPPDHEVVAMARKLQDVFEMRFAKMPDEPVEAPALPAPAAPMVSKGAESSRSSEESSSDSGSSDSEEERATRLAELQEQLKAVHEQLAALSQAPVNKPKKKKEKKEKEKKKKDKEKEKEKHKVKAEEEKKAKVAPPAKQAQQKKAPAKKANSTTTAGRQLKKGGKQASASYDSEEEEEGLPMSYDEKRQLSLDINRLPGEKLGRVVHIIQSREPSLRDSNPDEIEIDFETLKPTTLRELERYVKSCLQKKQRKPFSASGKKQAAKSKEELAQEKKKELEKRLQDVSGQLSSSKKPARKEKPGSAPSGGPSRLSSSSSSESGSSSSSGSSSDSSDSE
# [20] = Volume of distribution at steady state in ICR mouse at 5 mg/kg, iv measured upto 24 hrs by LC-MS/MS analysis; assay type: ADME, organism-based; conditions: in vivo, read-out: Vdss
# [21] = target: T1, Bromodomain-containing protein 3; assay: Binding affinity to human recombinant BRD3 BD2 (306 to 417 residues) by fluorescence polarization assay
# Target sequence in this assay (Q15059 whole entry, the tested form may be a part): as the sequence (Q15059 whole entry, the tested form may be a part) above
# [22] = target: T4, Bromodomain-containing protein 2; assay: Binding affinity to human recombinant BRD2 BD2 (349 to 460 residues) by fluorescence polarization assay
# Target sequence in this assay (P25440 whole entry, the tested form may be a part, canonical isoform): as the sequence (P25440 whole entry, looked up, the tested form may be a part, canonical isoform) above
# [23] = Cmax in ICR mouse at 5 mg/kg, iv measured upto 24 hrs by LC-MS/MS analysis; assay type: ADME, organism-based; design: dose 5 mg/kg, route intravenous; conditions: in vivo
# MV4-11 [24] = assay: Antitumour activity against human MV4-11 cells xenografted in BALB/c nu/nu mouse assessed as downregulation of c-Myc expression level in tumor tissue at 150 mg/kg, po administered via gavage as a single dose measured after 24 hrs by western blot analysis; assay type: functional; conditions: MV4-11, po
# [25] = target: T4, Bromodomain-containing protein 2; assay: Binding affinity to human partial length BRD2 BD2 isoform 1 (E348 to D455 residues) expressed in bacterial expression system by bromoscan assay
# Target sequence in this assay (P25440 whole entry, the tested form may be a part, canonical isoform): as the sequence (P25440 whole entry, looked up, the tested form may be a part, canonical isoform) above
# MV4-11 [26] = assay: Antiproliferative activity against human MV4-11 cells assessed as cell growth inhibition after 4 days by CCK8 assay; assay type: functional, cell-based; conditions: MV4-11, 96 h
# MV4-11 [27] = assay: Upregulation of p21 mRNA expression in human MV4-11 cells after 24 hrs by qRT-PCR analysis; assay type: functional, cell-based
# MV4-11 [28] = assay: Antitumour activity against human MV4-11 cells xenografted in BALB/c nu/nu mouse assessed as tumour growth inhibition administered via oral gavage once daily for 21 days and measured every 2 to 3 days by vernier caliper method; assay type: functional, cell-based
# HepG2 [29] = assay: Downregulation of G6PC in human HepG2 cells after 4 hrs by qRT-PCR analysis; assay type: functional, cell-based
# [30] = Clearance in ICR mouse at 5 mg/kg, iv measured upto 24 hrs by LC-MS/MS analysis; assay type: ADME, organism-based; conditions: in vivo
# [31] = target: T2, Bromodomain-containing protein 4; assay: Binding affinity to human partial length BRD4 BD1 isoform long (N44 to E168 residues) expressed in bacterial expression system by bromoscan assay
# [32] = Half-life in ICR mouse at 5 mg/kg, iv measured upto 24 hrs by LC-MS/MS analysis; assay type: ADME, organism-based; conditions: in vivo
# MV4-11 [33] = assay: Antitumour activity against human MV4-11 cells xenografted in BALB/c nu/nu mouse assessed as tumour growth inhibition at 60 mg/kg, po via gavage administered once daily for 21 days and measured every 2 to 3 days by vernier caliper method relative to control; assay type: functional; conditions: MV4-11, po, read-out: GI
# [34] = AUC (0 to t) in ICR mouse at 5 mg/kg, iv measured upto 24 hrs by LC-MS/MS analysis; assay type: ADME, organism-based; design: dose 5 mg/kg, time < 24 hr, route intravenous; conditions: in vivo
# MV4-11 [35] = assay: Downregulation of p21 expression level in tumor tissue in BALB/c nu/nu mouse xenografted with human MV4-11 cells at 150 mg/kg, po administered via gavage as a single dose measured after 24 hrs by western blot analysis; assay type: functional; conditions: MV4-11, po
# MV4-11 [36] = assay: Antitumour activity against human MV4-11 cells xenografted in BALB/c nu/nu mouse assessed as tumour growth inhibition at 150 mg/kg, po via gavage administered once daily for 21 days and measured every 2 to 3 days by vernier caliper method relative to control; assay type: functional; conditions: MV4-11, po, read-out: GI
# [37] = target: T2, Bromodomain-containing protein 4; assay: Binding affinity to human recombinant BRD4 BD1 (44 to 168 residues) by fluorescence polarization assay
# [38] = Oral bioavailability in ICR mouse at 15 mg/kg measured upto 24 hrs by LC-MS/MS analysis; assay type: ADME, organism-based; conditions: in vivo
# [39] = target: T1, Bromodomain-containing protein 3; assay: Binding affinity to human recombinant BRD3 BD1 (24 to 144 residues) by fluorescence polarization assay
# Target sequence in this assay (Q15059 whole entry, the tested form may be a part): as the sequence (Q15059 whole entry, the tested form may be a part) above
# [40] = target: T1, Bromodomain-containing protein 3; assay: Selectivity index, ratio of Ki for human recombinant BRD3 BD1 (24 to 144 residues) to Ki for human recombinant BRD3 BD2 (306 to 417 residues)
# Target sequence in this assay (Q15059 2-726 limits assumed): as the sequence (Q15059 2-726 limits assumed) above
# [41] = target: T4, Bromodomain-containing protein 2; assay: Binding affinity to human partial length BRD2 BD1 isoform 1 (K71 to N194 residues) expressed in bacterial expression system by bromoscan assay
# Target sequence in this assay (P25440 whole entry, the tested form may be a part, canonical isoform): as the sequence (P25440 whole entry, looked up, the tested form may be a part, canonical isoform) above
# MV4-11 [42] = assay: Decrease in c-Myc protein expression in human MV4-11 cells incubated for 24 hrs by western blot analysis; assay type: functional, cell-based
# MV4-11 [43] = assay: Antitumour activity against human MV4-11 cells xenografted in BALB/c nu/nu mouse assessed as downregulation of c-Myc expression level in tumor tissue at 150 mg/kg, po administered via gavage as a single dose measured after 6 hrs by western blot analysis; assay type: functional; conditions: MV4-11, po
# MV4-11 [44] = assay: Increase in p21 protein expression in human MV4-11 cells incubated for 24 hrs by western blot analysis; assay type: functional, cell-based
# [45] = target: T4, Bromodomain-containing protein 2; assay: Binding affinity to human recombinant BRD2 BD1 (72 to 205 residues) by fluorescence polarization assay
# Target sequence in this assay (P25440 whole entry, the tested form may be a part, canonical isoform): as the sequence (P25440 whole entry, looked up, the tested form may be a part, canonical isoform) above
# MV4-11 [46] = assay: Downregulation of cMyc mRNA expression in human MV4-11 cells after 24 hrs by qRT-PCR analysis; assay type: functional, cell-based
compound,measurement,setting,value
CCNC(=O)C[C@@H]1N=C(c2ccc(Cl)cc2)c2cc(OC)ccc2-n2c(C)nnc21 [MOLIBRESIB],Activity,[1],11%
Cc1nnc2n1-c1ccc(-c3cnn(C)c3)cc1[C@H](Nc1ccc(Cl)cc1)CC2,Kd,[2],0.0026 µM
same,inhibition,HepG2 [3],Dose-dependent effect
same,half-life,[4],57 min
same,inhibition,HepG2 [5],Dose-dependent effect
same,Selectivity ratio,[6],7
same,Kd,[7],0.064 µM
same,IC50,MM1.S,0.0167 µM
same,Ki,[8],0.0073 µM
same,Selectivity ratio,[9],21
same,Kd,[10],0.0035 µM
same,inhibition in vivo at 100 mg/kg,MV4-11 [11],58%
same,Cmax,[12],2.21 µg/mL
same,Kd,[13],0.012 µM
same,AUC(0-t) at 24 h,[14],5.89 µg·h/mL
same,Selectivity ratio,[15],38
same,Activity,MV4-11 [16],46%
same,Activity,[17],7%
same,Kd,[18],0.003 µM
same,Selectivity ratio,[19],5
same,Vd,[20],0.94 L/kg
same,Ki,[21],0.0053 µM
same,Ki,[22],0.0031 µM
same,Cmax,[23],5.42 µg/mL
same,inhibition in vivo at 150 mg/kg,MV4-11 [24],43%
same,Kd,[25],0.0012 µM
same,IC50,MV4-11 [26],0.027 µM
same,Activity,MV4-11 [27],Dose-dependent effect
same,inhibition,MV4-11 [28],Dose-dependent effect
same,inhibition,HepG2 [29],Dose-dependent effect
same,clearance,[30],1.5 L/h/kg
same,Kd,[31],0.026 µM
same,half-life,[32],34.8 min
same,inhibition in vivo at 60 mg/kg,MV4-11 [33],47%
same,AUC(0-t) at 24 h,[34],3.32 µg·h/mL
same,inhibition in vivo at 150 mg/kg,MV4-11 [35],18%
same,inhibition in vivo at 150 mg/kg,MV4-11 [36],67%
same,Ki,[37],0.08 µM
same,bioavailability,[38],59.1%
same,Ki,[39],0.0779 µM
same,Ratio Ki,[40],15
same,Kd,[41],0.045 µM
same,inhibition,MV4-11 [42],Dose-dependent effect
same,inhibition in vivo at 150 mg/kg,MV4-11 [43],30%
same,Activity,MV4-11 [44],Dose-dependent effect
same,Ki,[45],0.0955 µM
same,inhibition,MV4-11 [46],Dose-dependent effect
